Reference: ChEMBL document CHEMBL5360534, “Synthetic α-glucosidase inhibitors as promising anti-diabetic agents: Recent developments and future challenges” (Eur J Med Chem, 2023)

How the values were obtained:
[1] = Inhibition of alpha-glucosidase (unknown origin); design: species or system Homo sapiens
Alpha-glucosidase [2] = biological target: T1, Alpha-glucosidase (Saccharomyces cerevisiae S288c, UniProt P53341+P38158+P07265); assay: Inhibition of Saccharomyces cerevisiae alpha-glucosidase using pNPG as substrate preincubated for 10 mins followed by substrate addition and measured after 20 mins by spectrophotometric analysis; format: protein assay
Alpha-glucosidase [3] = biological target: T1, Alpha-glucosidase; assay: Inhibition of Saccharomyces cerevisiae alpha-glucosidase using p-nitrophenyl glucopyranoside as substrate preincubated for 10 mins followed by substrate addition and measured after 20 mins by spectrophotometric analysis; format: protein assay

| Compound | IC50 [1] | also measured |
| --- | --- | --- |
| CC(C)Cc1ccc(C(C)c2nnc(SC/C(=N\c3ccc(Cl)c(Cl)c3)c3ccccc3)o2)cc1 (configuration not stated) | 3.05 µM |  |
| Cc1ccccc1Cn1cc(COc2ccc(C(c3c(O)c4ccccc4oc3=O)C3C(=O)Cc4ccccc4C3O)cc2)nn1 (configuration not stated) |  | IC50 (Alpha-glucosidase [2]): 16.4 µM |
| Cc1ccoc1-c1cccc(/C=N/NC(=O)c2ccc(-c3cc(=O)c4cc(O)ccc4o3)cc2)c1 | 1.02 µM |  |
| Nc1c(-c2ccccc2)nc2nc3cc(Cl)c(Cl)cc3n2c1-c1ccccc1 |  | IC50 (Alpha-glucosidase [3]): 16.4 µM |
| O=C(Cn1cc(COc2ccc(-c3nc4ccccc4c(=O)[nH]3)cc2)nn1)Nc1ccccc1 |  | IC50 (Alpha-glucosidase [3]): 45.3 µM |
| Nc1nnc(-c2cccc3cccc(O)c23)o1 | 0.8 µM |  |
| OC[C@H]1CC2C(N=NN2c2ccccc2)[C@@H](O)C1O (some centres not stated) | 74 µM |  |
| COc1ccc(CCn2c(SCc3cn(Cc4ccc(Br)cc4)nn3)nc3ccccc3c2=O)cc1OC |  | IC50 (Alpha-glucosidase [3]): 192.3 µM |
| CCOC(=O)c1c(-c2ccc(/C=C3/SC(=S)NC3=O)cc2)c2ccccc2n1Cc1ccc(Cl)cc1 | 0.51 µM |  |
| O=C(CC(c1cc(Cl)ccc1Cl)c1c[nH]c2ccccc12)c1ccccc1 (configuration not stated) | 4.3 µM |  |
| COc1cccc2cc(-c3nnc(SCc4cn(CC(=O)NCc5ccc(F)cc5)nn4)o3)oc12 |  | IC50 (Alpha-glucosidase [3]): 40.7 µM |
| COc1ccc(/C=N/n2c(COc3ccccc3)nnc2SCCO)cc1 | 1.49 µM |  |
| CCOC(=O)c1c(-c2ccc(/C=C3/SC(=O)NC3=O)cc2)c2ccccc2n1Cc1ccccc1 | 5.3 µM |  |
| COc1ccc(-n2c(SCC(=O)N/N=C/c3ccc(Cl)cc3)nc3ccccc3c2=O)cc1 | 610 µM |  |
| COc1ccc(-c2coc3cc(OCC(=O)c4ccc(Cl)cc4)ccc3c2=O)cc1 | 6.3 µM |  |
| O=C1C(=O)N(Cc2cn(CN3C(=O)S/C(=C\c4ccco4)C3=O)nn2)c2ccccc21 | 24.7 µM |  |
| CCOC(=O)c1c(-c2ccc(/C=C3/SC(=O)NC3=O)cc2)c2ccccc2n1Cc1ccc(Cl)cc1 | 3.6 µM |  |
| Cc1cccc(-n2c(-c3ccc(Cl)cc3)cc(C(=O)Nc3ccncc3)c2C)c1 | 118 µM |  |
| COc1cc(OC)c(Br)c(-c2nc3ccc(Br)cc3[nH]2)c1 | 8.15 µM |  |

| Compound | IC50 [1] | also measured |
| --- | --- | --- |
| OCCSc1nnc(COc2ccccc2)n1/N=C/c1ccc(O)cc1 | 1.49 µM |  |
| Cc1cc([N+](=O)[O-])ccc1-c1cnc(CC(C)C)s1 | 7.17 µM |  |
| OCCN1C[C@H](O)[C@@H](O)[C@H](O)[C@H]1CO [MIGLITOL] | 0.39 µM |  |
| CCn1cc(C(=O)OCc2ccccc2Br)c(=O)c2cc(F)c(N3CCN(Cc4ccccc4Br)CC3)nc21 | 45.8 µM |  |
| O=C(CSc1nc2ccccc2c(=O)n1-c1cccc(Br)c1)c1ccc([N+](=O)[O-])cc1 | 85 µM |  |
| CCOC(=O)C1=C(C)NC2=C(C(=O)CC(C)(C)C2)C1c1cc(OC)c(OC)cc1Br (configuration not stated) | 2.31 µM |  |
| CCOC(=O)c1c(-c2ccccc2)nn2c1C=C(c1ccc(O)c(OC)c1)/C2=N/C1CCCCC1 |  | IC50 (Alpha-glucosidase [3]): 95 µM |
| CN(C)c1ccc(-c2ccc(/C=N/n3c(COc4ccccc4)nnc3SCCO)cc2)cc1 | 1.49 µM |  |
| CCOP(=O)(OCC)C(Nc1ccc(C(F)(F)F)cc1I)c1cc(OC)c(O)c(OC)c1 (configuration not stated) | 94.5 µM |  |
| Nc1ccc2c(-c3nc4ccc(Br)c(O)c4s3)cc(=O)oc2c1 | 6.32 µM |  |
| COc1cccc(/C=C/c2nc(-c3ccccc3)c3cc(Cl)ccc3n2)c1OS(=O)(=O)c1ccc([N+](=O)[O-])cc1 | 28 µM |  |
| O=[N+]([O-])c1ccc(S(=O)(=O)Oc2ccc(/C=C/c3nc4ccccc4nc3O)cc2)cc1 | 32 µM |  |
| CCOC(=O)c1c(-c2ccc(/C=C3/SC(=S)NC3=O)cc2)c2ccccc2n1Cc1ccccc1 | 0.91 µM |  |
| O=C(NNS(=O)(=O)c1ccccc1Cl)c1ccc(-c2nnc(-c3ccc([N+](=O)[O-])cc3)o2)cc1 | 1.1 µM |  |
| O=C(N/N=C/c1ccc(Cl)cc1)c1cc(-c2ccccc2)[nH]n1 | 60.5 µM |  |
| Oc1c(Cl)cc(Cl)cc1/C=N/c1nc(-c2ccc(-c3ccccc3)cc2)cs1 | 0.5 µM |  |
| Cc1ccc(-c2cc(C(F)(F)F)nn2-c2ccc(S(=O)(=O)NC(=O)c3ccc(C)c([N+](=O)[O-])c3)cc2)cc1 | 92.3 µM |  |
| OC[C@H]1NC[C@H](O)[C@@H](O)[C@@H]1O [DUVOGLUSTAT] | 426 µM |  |
